{"source": "paper PMC8041777", "about": "“Protein kinase A controls the hexosamine pathway by tuning the feedback inhibition of GFAT-1” (Nature Communications, 2021)", "target": "T1, GFAT-1 (human GFAT-1 isoform 2, hGFAT1) (Homo sapiens, UniProt Q06210)", "T1 construct": "gene GFPT1; full length, internal His6-tag between Gly299 and Asp300 (kept), expressed in Sf21 insect cells (MultiBac), Ni-NTA and SEC purified", "T1 sequence (Q06210 2-681 isoform Q06210-2)": "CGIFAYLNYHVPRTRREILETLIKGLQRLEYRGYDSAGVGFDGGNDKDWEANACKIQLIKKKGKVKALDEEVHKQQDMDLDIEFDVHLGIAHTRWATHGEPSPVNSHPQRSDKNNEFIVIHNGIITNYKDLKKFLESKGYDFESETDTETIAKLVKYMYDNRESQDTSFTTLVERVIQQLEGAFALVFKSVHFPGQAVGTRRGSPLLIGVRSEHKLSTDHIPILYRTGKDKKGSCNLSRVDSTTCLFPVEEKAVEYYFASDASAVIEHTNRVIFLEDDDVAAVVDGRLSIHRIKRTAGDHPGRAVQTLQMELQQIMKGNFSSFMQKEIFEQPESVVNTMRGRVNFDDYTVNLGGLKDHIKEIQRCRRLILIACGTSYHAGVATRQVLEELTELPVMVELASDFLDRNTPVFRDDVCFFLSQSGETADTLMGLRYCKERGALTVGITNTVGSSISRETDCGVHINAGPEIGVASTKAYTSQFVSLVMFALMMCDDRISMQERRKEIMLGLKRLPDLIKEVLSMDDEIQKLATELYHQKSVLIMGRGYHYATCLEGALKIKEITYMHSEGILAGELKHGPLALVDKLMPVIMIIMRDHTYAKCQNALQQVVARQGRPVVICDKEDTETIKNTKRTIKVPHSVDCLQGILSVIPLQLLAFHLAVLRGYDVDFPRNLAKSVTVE", "experiment": "GDH-coupled amidohydrolysis assay (APADH at […] nm)", "assay_type": "biochemical", "details": "10 mM L-Gln, 6 mM Frc6P, 1 mM APAD, 50 mM KCl, 100 mM potassium phosphate pH 7.5, 37 °C; allosteric feedback inhibitor, isomerase domain site"}
{"molecule": "CC(=O)N[C@H]1[C@@H](OP(=O)(O)OP(=O)(O)OC[C@H]2O[C@@H](n3ccc(=O)[nH]c3=O)[C@H](O)[C@@H]2O)O[C@H](CO)[C@@H](O)[C@@H]1O", "note": "[UDP-GlcNAc]", "values": [{"measurement": "IC50", "result": "41.4 −3.5/+3.9 µM"}]}
